Test results taken from ChEMBL document CHEMBL4842341, “Discovery of IACS-9779 and IACS-70465 as Potent Inhibitors Targeting Indoleamine 2,3-Dioxygenase 1 (IDO1) Apoenzyme” (J Med Chem, 2021).

Experiment: Apparent permeability across apical side to basolateral side in wild type MDCK cells
Assay type: ADME, cell-based, Canis lupus familiaris
Details: dog

SMILES | Papp A→B [×10⁻⁶ cm/s]
CCC(NC(=O)c1ccc(Cl)cc1)[C@H]1[C@@H]2C[C@H](Oc3ccnc4ccccc34)C[C@@H]21 (some centres undefined) | 5.53
CCC(NC(=O)c1ccc(Cl)cc1)[C@@H]1[C@@H]2C[C@@H](Oc3ccnc4ccccc34)C[C@@H]21 (some centres undefined) | 3.63

Experiment: Apparent permeability across basolateral side to apical side in MDCK cells
Assay type: ADME, cell-based, Canis lupus familiaris
Details: dog

SMILES | Papp B→A [×10⁻⁶ cm/s]
CCC(NC(=O)c1ccc(Cl)cc1)[C@H]1[C@@H]2C[C@H](Oc3ccnc4ccccc34)C[C@@H]21 (some centres undefined) | 5.61
CCC(NC(=O)c1ccc(Cl)cc1)[C@@H]1[C@@H]2C[C@@H](Oc3ccnc4ccccc34)C[C@@H]21 (some centres undefined) | 1.73

Experiment: Apparent permeability across apical side to basolateral side in MDCK-MDR1 cells
Assay type: ADME, cell-based, Canis lupus familiaris
Details: dog

SMILES | Papp A→B [×10⁻⁶ cm/s]
CCC(NC(=O)c1ccc(Cl)cc1)[C@H]1[C@@H]2C[C@H](Oc3ccnc4ccccc34)C[C@@H]21 (some centres undefined) | 3.7
CCC(NC(=O)c1ccc(Cl)cc1)[C@@H]1[C@@H]2C[C@@H](Oc3ccnc4ccccc34)C[C@@H]21 (some centres undefined) | 1.86

Experiment: Apparent permeability across basolateral side to apical side in MDCK-MDR1 cells
Assay type: ADME, cell-based, Canis lupus familiaris
Details: dog

SMILES | Papp B→A [×10⁻⁶ cm/s]
CCC(NC(=O)c1ccc(Cl)cc1)[C@H]1[C@@H]2C[C@H](Oc3ccnc4ccccc34)C[C@@H]21 (some centres undefined) | 2.07
CCC(NC(=O)c1ccc(Cl)cc1)[C@@H]1[C@@H]2C[C@@H](Oc3ccnc4ccccc34)C[C@@H]21 (some centres undefined) | 1.4

Experiment: Half life in mouse plasma
Assay type: ADME, cell-free
Details: not given

SMILES | half-life [h]
CCC(NC(=O)c1ccc(Cl)cc1)[C@@H]1[C@@H]2C[C@@H](Oc3ccnc4ccccc34)C[C@@H]21 (some centres undefined) | 12.8

Experiment: in vivo
Details: CD1, mouse, iv, 0.3 mg/kg

SMILES | AUC(0-inf) [µM·h]
CC(NC(=O)c1ccc(C#N)cc1)[C@H]1[C@@H]2C[C@@H](Oc3ncnc4cc(F)ccc34)C[C@@H]21 (some centres undefined) | 106
CCC(NC(=O)c1ccc(Cl)cc1)[C@H]1[C@@H]2C[C@@H](n3cc(C4CC4)nn3)C[C@@H]21 (some centres undefined) | 2.8
CCC(NC(=O)c1ccc(Cl)cc1)[C@@H]1[C@@H]2C[C@H](Oc3ccnc4ccc(F)cc34)C[C@@H]21 (some centres undefined) | 51

Experiment: in vivo
Details: CD1, mouse, iv, 0.3 mg/kg
Remark: another data set of the same source

SMILES | half-life [h]
CC(NC(=O)c1ccc(C#N)cc1)[C@H]1[C@@H]2C[C@@H](Oc3ncnc4cc(F)ccc34)C[C@@H]21 (some centres undefined) | 33
CCC(NC(=O)c1ccc(Cl)cc1)[C@H]1[C@@H]2C[C@@H](n3cc(C4CC4)nn3)C[C@@H]21 (some centres undefined) | 2.7
CCC(NC(=O)c1ccc(Cl)cc1)[C@@H]1[C@@H]2C[C@H](Oc3ccnc4ccc(F)cc34)C[C@@H]21 (some centres undefined) | 15

Experiment: in vivo
Details: CD1, mouse, iv, 0.3 mg/kg
Remark: another data set of the same source

SMILES | Vd [L/kg]
CC(NC(=O)c1ccc(C#N)cc1)[C@H]1[C@@H]2C[C@@H](Oc3ncnc4cc(F)ccc34)C[C@@H]21 (some centres undefined) | 0.31
CCC(NC(=O)c1ccc(Cl)cc1)[C@H]1[C@@H]2C[C@@H](n3cc(C4CC4)nn3)C[C@@H]21 (some centres undefined) | 1.04
CCC(NC(=O)c1ccc(Cl)cc1)[C@@H]1[C@@H]2C[C@H](Oc3ccnc4ccc(F)cc34)C[C@@H]21 (some centres undefined) | 0.27

Experiment: in vivo
Details: NSG, mouse, tumor, po, 125 mg/kg

SMILES | concentration at 120 h [µM]
CC[C@@H](NC(=O)c1ccc(Cl)cc1)[C@H]1[C@@H]2C[C@@H](n3cnc4ccc(C#N)cc43)C[C@@H]21 | 12
C[C@@H](NC(=O)c1ccc(Cl)cc1)[C@H]1[C@@H]2C[C@@H](n3cnc4cc(F)c(F)cc43)C[C@@H]21 | 5.1
CC[C@@H](NC(=O)c1ccc(Cl)cc1)[C@H]1[C@@H]2C[C@@H](n3cnc4ccc(Cl)cc43)C[C@@H]21 | 0.6
CC[C@@H](NC(=O)c1ccc(Cl)cc1)[C@H]1[C@@H]2C[C@@H](n3c(C)nc4ccc(F)cc43)C[C@@H]21 | 0.1
CC[C@@H](NC(=O)c1ccc(Cl)c(F)c1)[C@H]1[C@@H]2C[C@@H](n3cnc4cc(F)c(F)cc43)C[C@@H]21 | 11

Experiment: in vivo
Details: CD1, mouse, iv, 0.3 mg/kg
Remark: another data set of the same source

SMILES | clearance [mL/min/kg]
CC(NC(=O)c1ccc(C#N)cc1)[C@H]1[C@@H]2C[C@@H](Oc3ncnc4cc(F)ccc34)C[C@@H]21 (some centres undefined) | 0.117
CCC(NC(=O)c1ccc(Cl)cc1)[C@H]1[C@@H]2C[C@@H](n3cc(C4CC4)nn3)C[C@@H]21 (some centres undefined) | 4.67
CCC(NC(=O)c1ccc(Cl)cc1)[C@@H]1[C@@H]2C[C@H](Oc3ccnc4ccc(F)cc34)C[C@@H]21 (some centres undefined) | 0.233

Experiment: in vivo
Details: CD1, mouse, po, 10 mg/kg

SMILES | Cmax [µM]
CC(NC(=O)c1ccc(C#N)cc1)[C@H]1[C@@H]2C[C@@H](Oc3ncnc4cc(F)ccc34)C[C@@H]21 (some centres undefined) | 44
CCC(NC(=O)c1ccc(Cl)cc1)[C@H]1[C@@H]2C[C@@H](n3cc(C4CC4)nn3)C[C@@H]21 (some centres undefined) | 1.5
CCC(NC(=O)c1ccc(Cl)cc1)[C@@H]1[C@@H]2C[C@H](Oc3ccnc4ccc(F)cc34)C[C@@H]21 (some centres undefined) | 51

Experiment: in vivo
Details: CD1, mouse, po, 10 mg/kg
Remark: another data set of the same source

SMILES | bioavailability [%]
CC(NC(=O)c1ccc(C#N)cc1)[C@H]1[C@@H]2C[C@@H](Oc3ncnc4cc(F)ccc34)C[C@@H]21 (some centres undefined) | 62
CCC(NC(=O)c1ccc(Cl)cc1)[C@H]1[C@@H]2C[C@@H](n3cc(C4CC4)nn3)C[C@@H]21 (some centres undefined) | 22
CCC(NC(=O)c1ccc(Cl)cc1)[C@@H]1[C@@H]2C[C@H](Oc3ccnc4ccc(F)cc34)C[C@@H]21 (some centres undefined) | 146

Experiment: in vivo
Details: NSG, mouse, tumor, po, 125 mg/kg
Remark: another data set of the same source

SMILES | concentration at 120 h [µM]
CC[C@@H](NC(=O)c1ccc(C#N)cc1)[C@H]1[C@@H]2C[C@@H](n3cnc4cc(F)c(F)cc43)C[C@@H]21 | 52
CC[C@@H](NC(=O)c1ccc(Cl)cc1)[C@H]1[C@@H]2C[C@@H](n3cnc4ccc(F)cc43)C[C@@H]21 (stereo in doubt; 56) | 2.3

Experiment: in vivo
Details: NSG, mouse, plasma, po, 125 mg/kg

SMILES | concentration at 120 h [µM]
CC[C@@H](NC(=O)c1ccc(Cl)cc1)[C@H]1[C@@H]2C[C@@H](n3cnc4ccc(C#N)cc43)C[C@@H]21 | 10.1
C[C@@H](NC(=O)c1ccc(Cl)cc1)[C@H]1[C@@H]2C[C@@H](n3cnc4cc(F)c(F)cc43)C[C@@H]21 | 2.8
CC[C@@H](NC(=O)c1ccc(Cl)cc1)[C@H]1[C@@H]2C[C@@H](n3cnc4ccc(Cl)cc43)C[C@@H]21 | 0.5
CC[C@@H](NC(=O)c1ccc(Cl)cc1)[C@H]1[C@@H]2C[C@@H](n3c(C)nc4ccc(F)cc43)C[C@@H]21 | 0.01
CC[C@@H](NC(=O)c1ccc(Cl)c(F)c1)[C@H]1[C@@H]2C[C@@H](n3cnc4cc(F)c(F)cc43)C[C@@H]21 | 4.1

Experiment: in vivo
Details: NSG, mouse, plasma, po, 125 mg/kg
Remark: another data set of the same source

SMILES | concentration at 120 h [µM]
CC[C@@H](NC(=O)c1ccc(C#N)cc1)[C@H]1[C@@H]2C[C@@H](n3cnc4cc(F)c(F)cc43)C[C@@H]21 | 49.3
CC[C@@H](NC(=O)c1ccc(Cl)cc1)[C@H]1[C@@H]2C[C@@H](n3cnc4ccc(F)cc43)C[C@@H]21 (stereo in doubt; 56) | 0.6

Experiment: in vitro
Details: rat, liver microsomes

SMILES | CLint scaled at 0.75 h, 1 µM [mL/min/kg]
CCC(NC(=O)c1ccc(Cl)cc1)[C@H]1[C@@H]2C[C@H](Oc3ccnc4ccccc34)C[C@@H]21 (some centres undefined) | 956
O=C(Nc1ccc(Cl)cc1)N1CCC(CCc2ccnc3ccccc23)CC1 | 170
O=C(C[C@H]1CC[C@@H](Oc2ccnc3ccccc23)CC1)Nc1ccc(Cl)cc1 | 455
O=C(Nc1ccc(Cl)cc1)C1CC12CCC(Oc1ccnc3ccccc13)CC2 (centres undefined) | 137
O=C(C[C@H]1CC[C@@H](c2ccccc2)CC1)Nc1ccc(Cl)cc1 | 884
CCC(NC(=O)c1ccc(Cl)cc1)[C@@H]1[C@@H]2C[C@@H](Oc3ccnc4ccccc34)C[C@@H]21 (some centres undefined) | 14
CC(C(=O)Nc1ccc(Cl)cc1)N1CC(COc2ccnc3ccccc23)C1 (centres undefined) | 526
O[C@H](C[C@H]1c2c(F)cccc2-c2cncn21)[C@H]1CC[C@H](O)CC1 [NAVOXIMOD] | 39

Experiment: in vitro
Details: human, liver microsomes

SMILES | CLint scaled at 0.75 h, 1 µM [mL/min/kg]
CCC(NC(=O)c1ccc(Cl)cc1)[C@H]1[C@@H]2C[C@H](Oc3ccnc4ccccc34)C[C@@H]21 (some centres undefined) | 316
CC(NC(=O)c1ccc(C#N)cc1)[C@H]1[C@@H]2C[C@@H](Oc3ncnc4cc(F)ccc34)C[C@@H]21 (some centres undefined) | 17
O=C(Nc1ccc(Cl)cc1)N1CCC(CCc2ccnc3ccccc23)CC1 | 115
CCC(NC(=O)c1ccc(Cl)cc1)[C@H]1[C@@H]2C[C@@H](n3cc(C4CC4)nn3)C[C@@H]21 (some centres undefined) | 6.5
O=C(C[C@H]1CC[C@@H](Oc2ccnc3ccccc23)CC1)Nc1ccc(Cl)cc1 | 44
O=C(Nc1ccc(Cl)cc1)C1CC12CCC(Oc1ccnc3ccccc13)CC2 (centres undefined) | 171
O=C(C[C@H]1CC[C@@H](c2ccccc2)CC1)Nc1ccc(Cl)cc1 | 681
CCC(NC(=O)c1ccc(Cl)cc1)[C@@H]1[C@@H]2C[C@@H](Oc3ccnc4ccccc34)C[C@@H]21 (some centres undefined) | 23
CC(C(=O)Nc1ccc(Cl)cc1)N1CC(COc2ccnc3ccccc23)C1 (centres undefined) | 227
O[C@H](C[C@H]1c2c(F)cccc2-c2cncn21)[C@H]1CC[C@H](O)CC1 [NAVOXIMOD] | 11
